Measured values from US20110263642A1, “METHODS FOR TREATMENT OF MULTIPLE SCLEROSIS” (FibroGen, Inc., priority 2008, published 2011).
Like-named read-outs stand apart in the source and are kept apart here.

Columns and labels:
[1] = test system: Oligodendrocytes (MO3.13 cells); experiment: Ceramide-induced cell death of oligodendrocytes, Calcein AM viability; assay type: cell-based; details: compound 20 μM, non-ceramide control = 100
Description: (See e.g., Craighead et al. (2000) Neurosci Lett. 278:125-8; Jana et al. (2007) J Neuroimmune Pharmacol. 2:184-93; Jana et al. (2009) J Neurol Sci. 278:5-15; Singh et al. (1998) J Biol. Chem. 273:20354-62.) In this model, addition of ceramide to cultured oligodendrocytes results in oxidative stress-induced cell death (i.e. apoptosis). The effect of compounds and methods of the present invention on the ability to improve oligodendrocyte viability following ceramide challenge was examined as follows. Oligodendrocytes (MO3.13 cells; Cedarlane Laboratories, Burlington, N.C.) were plated in 96-well culture dishes at a density of 4000 cells per well and cultured at 37° C., 10% CO2 in DMEM containing L-glutamine, sodium pyruvate, and 25 mM glucose (Mediatech Inc., Manassas, Va.) and supplemented with 10% FBS (Invitrogen Corporation, Carlsbad, Calif.). The next day, the plating media was removed and replaced with DMEM containing L-glutamine (Invitrogen Corporation, Carlsbad, Calif.) and supplemented with 5.5 mM glucose. Cells were then treated with vehicle (0.015% DMSO) or ceramide (Sigma-Aldrich, St. Louis, Mo.) plus vehicle (0.05% DMSO) or a compound of the invention (20 μM).
For cells treated longer than 3 days, half the media was removed after the third day of treatment and replaced with an equal volume of fresh treatment media containing vehicle (0.015% DMSO) or ceramide plus vehicle (0.05% DMSO) or a compound of the invention.
Cell viability was assessed 3, 4, and 5 days after treatment using the following protocol. Treatment media was removed from the cells and 100 ul of 1.67 uM Calcein AM reagent (Invitrogen Corporation, Carlsbad, Calif.) prepared in DMEM containing L-glutamine (Invitrogen Corporation, Carlsbad, Calif.) and supplemented with 5.5 mM glucose was added to each well. Cells were returned to 37° C. in a 10% CO2 incubator for approximately 30 minutes before assessing fluorescence (Ex 485 nm/Em 538 nm) using a microplate reader (Molecular Devices, Sunnyvale, Calif.). Images were taken of representative wells using a fluorescent microscope equipped with a camera (Nikon, Melville, N.Y.) and imaging software (Nikon, Melville, N.Y.).

[2] = test system: EAE animal model of chronic progressive multiple sclerosis; experiment: Chronic progressive EAE induced by MOG35-55 and pertussis toxin in mice, neurological scoring to day 35; assay type: in vivo, C57BL/6 mice
Description: A chronic progressive model of EAE is an accepted animal model of human chronic progressive multiple sclerosis (MS). In this model, induction of chronic progressive EAE occurs following injections of myelin oligodendrocyte glycoprotein (MOG). Approximately 8 to 14 days after injection of MOG, animals develop chronic progressive paralysis similar to that observed in humans with chronic progressive MS.
Female C57BL/6 mice (8-10 weeks old) were used in this study (Taconic Farm, CA). Compounds of the present invention were formulated in 0.5% carboxymethyl cellulose (CMC) with 0.1% Polysorbate 80 to achieve a final concentration of either 1.2 mg/ml or 4.0 mg/ml. FTY-720 was also formulated in 0.5% carboxymethyl cellulose (CMC) with 0.1% Polysorbate 80 to achieve a final concentration of 2.0 mg/ml.
Induction of chronic progressive EAE by injection with myelin oligodendrocyte glycoprotein (MOG) was performed as follows. Mice were injected subcutaneously with 200 μg of myelin oligodendrocyte glycoprotein (MOG35-55) peptide emulsion in both sides of their pectoral regions (50 μl each side). At 8 hours and 48 hr after immunization with MOG, animals were injected intraperitoneally with 400 ng of pertussis toxin (PT) in 100 μl of saline. Control mice received both injections with an equivalent volume of saline without MOG or PT.
[…] FTY-720 (10 mg/kg) was used in this study as a positive control and was administered daily from day 0 to day 35.
Neurological scoring was performed daily from day 7 to day 35 following MOG injection. Grading of disease severity (i.e., disease score) was based on the following observations performed by two different observers: 0=no abnormality; 1=distal weakness of the tail (limp tail); 2=limp tail and weakness of hind legs (mild paraparesis); 3=limp tail and complete paralysis of hind legs or paralysis in one of one front leg and one hind leg (moderate paraparesis); 4=limp tail, complete hind leg and partial front leg paralysis (moderate quadraparesis); 5=complete hind and front leg paralysis (moribund). Analysis of variance (ANOVA) was performed on data from the measured (neurological score) parameters. p value≦0.05 were considered significant.

[3] = 72 h, ceramide 2.25 μM, read-out: % Viable at Day 3
[4] = 96 h, ceramide 2.25 μM, read-out: % Viable at Day 4
[5] = 120 h, ceramide 2.25 μM, read-out: % Viable at Day 5
[6] = 72 h, ceramide 2.75 μM, read-out: % Viable at Day 3
[7] = 96 h, ceramide 2.75 μM, read-out: % Viable at Day 4
[8] = 120 h, ceramide 2.75 μM, read-out: % Viable at Day 5

Cc1ccc(Oc2cccc3c(C#N)nc(C(=O)NCC(=O)O)c(O)c23)cc1 [Compound B, [(1-Cyano-4-hydroxy-5-p-tolyloxy-isoquinoline-3-carbonyl)-amino]-acetic acid]
viability at 20 µM [1, 3]: 76%
viability at 20 µM [1, 4]: 54%
viability at 20 µM [1, 5]: 16%

Cc1ccc(Oc2cccc3c(O)c(C(=O)NCC(=O)O)nc(-c4cccnc4)c23)cc1 [Compound C, [(4-Hydroxy-1-pyridin-3-yl-8-p-tolyloxy-isoquinoline-3-carbonyl)-amino]-acetic acid]
viability at 20 µM [1, 3]: 61%
viability at 20 µM [1, 4]: 51%
viability at 20 µM [1, 5]: 16%

COc1cc(F)cc(Oc2ccc3c(O)c(C(=O)NCC(=O)O)ncc3c2)c1 [Compound D, {[7-(3-Fluoro-5-methoxy-phenoxy)-4-hydroxy-isoquinoline-3-carbonyl]-amino}-acetic acid]
viability at 20 µM [1, 6]: 79%
viability at 20 µM [1, 7]: 74%
viability at 20 µM [1, 8]: 61%

COc1cccc(Oc2cccc3c(O)c(C(=O)NCC(=O)O)ncc23)c1 [Compound E, {[4-Hydroxy-8-(3-methoxy-phenoxy)-isoquinoline-3-carbonyl]-amino}-acetic acid]
viability at 20 µM [1, 6]: 84%
viability at 20 µM [1, 7]: 74%
viability at 20 µM [1, 8]: 71%

O=C(O)CNC(=O)c1ncc2cc(Oc3ccccc3)ccc2c1O [Compound F, [(4-Hydroxy-7-phenoxy-isoquinoline-3-carbonyl)-amino]-acetic acid]
viability at 20 µM [1, 3]: 85%
viability at 20 µM [1, 6]: 72%
viability at 20 µM [1, 4]: 66%
viability at 20 µM [1, 7]: 53%
viability at 20 µM [1, 5]: 62%
viability at 20 µM [1, 8]: 51%

O=C(O)CNC(=O)c1c(O)c2cccn2n(Cc2ccc(C(F)(F)F)cc2)c1=O [Compound G, {[4-Hydroxy-2-oxo-1-(4-trifluoromethyl-benzyl)-1,2-dihydro-pyrrolo[1,2-b]pyridazine-3-carbonyl]-amino}-acetic acid]
viability at 20 µM [1, 3]: 94%
viability at 20 µM [1, 4]: 86%
viability at 20 µM [1, 5]: 80%

C[C@H](NC(=O)c1c(O)c2cc(Cl)cn2n(Cc2ccc(C(F)(F)F)cc2)c1=O)C(=O)O [Compound H, (S)-2-{[6-Chloro-4-hydroxy-2-oxo-1-(4-trifluoromethyl-benzyl)-1,2-dihydro-pyrrolo[1,2-b]pyridazine-3-carbonyl]-amino}-propionic acid]
viability at 20 µM [1, 6]: 73%
viability at 20 µM [1, 7]: 74%
viability at 20 µM [1, 8]: 77%

O=C(O)CNC(=O)c1c(O)c2cc(Cl)cn2n(Cc2ccc(Cl)cc2)c1=O [Compound I, {[6-Chloro-1-(4-chloro-benzyl)-4-hydroxy-2-oxo-1,2-dihydro-pyrrolo[1,2-b]pyridazine-3-carbonyl]-amino}-acetic acid]
viability at 20 µM [1, 6]: 76%
viability at 20 µM [1, 7]: 66%
viability at 20 µM [1, 8]: 64%

O=C(O)CNC(=O)c1c(O)c2ccc(-c3ccc(Oc4ccccc4)cc3)cc2oc1=O [Compound J, {[4-Hydroxy-2-oxo-7-(4-phenoxy-phenyl)-2H-chromene-3-carbonyl]-amino}-acetic acid]
viability at 20 µM [1, 6]: 70%
viability at 20 µM [1, 7]: 36%
viability at 20 µM [1, 8]: 22%

CCCCCCOc1ccc2oc(=O)c(C(=O)NCC(=O)O)c(O)c2c1 [Compound K, [(6-Hexyloxy-4-hydroxy-2-oxo-2H-chromene-3-carbonyl)-amino]-acetic acid]
viability at 20 µM [1, 6]: 72%
viability at 20 µM [1, 7]: 43%
viability at 20 µM [1, 8]: 56%

COc1ccc(-c2ccc3c(O)c(C(=O)NCC(=O)O)c(=O)sc3c2)cc1 [Compound L, {[4-Hydroxy-7-(4-methoxy-phenyl)-2-oxo-2H-thiochromene-3-carbonyl]-amino}-acetic acid]
viability at 20 µM [1, 6]: 75%
viability at 20 µM [1, 7]: 59%
viability at 20 µM [1, 8]: 64%

CCCCOc1ccc2c(O)c(C(=O)NCC(=O)O)c(=O)sc2c1 [Compound M, [(7-Butoxy-4-hydroxy-2-oxo-2H-thiochromene-3-carbonyl)-amino]-acetic acid]
viability at 20 µM [1, 6]: 74%
viability at 20 µM [1, 7]: 57%
viability at 20 µM [1, 8]: 59%

CC1(C)C(=O)C(C(=O)NCC(=O)O)=C(O)c2cc(Cl)ccc21 [Compound N, [(7-Chloro-1-hydroxy-4,4-dimethyl-3-oxo-3,4-dihydro-naphthalene-2-carbonyl)-amino]-acetic acid]
viability at 20 µM [1, 6]: 82%
viability at 20 µM [1, 7]: 67%
viability at 20 µM [1, 8]: 67%

N#Cc1nc(C(=O)NCC(=O)O)c(O)c2ccn(Cc3ccccc3F)c12 [Compound O, {[7-Cyano-1-(2-fluoro-benzyl)-4-hydroxy-1H-pyrrolo[2,3-c]pyridine-5-carbonyl]-amino}-acetic acid]
viability at 20 µM [1, 6]: 74%
viability at 20 µM [1, 7]: 53%
viability at 20 µM [1, 8]: 52%

N#Cc1nc(C(=O)NCC(=O)O)c(O)c2ccn(Cc3ccc(-c4ccccc4)cc3)c12 [Compound P, [(1-Biphenyl-4-ylmethyl-7-cyano-4-hydroxy-1H-pyrrolo[2,3-c]pyridine-5-carbonyl)-amino]-acetic acid]
viability at 20 µM [1, 3]: 79%
viability at 20 µM [1, 4]: 80%
viability at 20 µM [1, 5]: 77%

COc1ccc(Cn2c(Cl)c(Cl)c3c(O)c(C(=O)NCC(=O)O)nc(C#N)c32)cc1 [Compound Q, {[2,3-Dichloro-7-cyano-4-hydroxy-1-(4-methoxy-benzyl)-1H-pyrrolo[2,3-c]pyridine-5-carbonyl]-amino}-acetic acid]
viability at 20 µM [1, 6]: 70%
viability at 20 µM [1, 7]: 59%
viability at 20 µM [1, 8]: 50%

CCCCCCCCc1ccc(CCC(N)(CO)CO)cc1 [FTY-720, reference compound]
development of EAE disease (positive control) ([2]; 10 mg/kg daily, day 0 to day 35): prevented the development of EAE disease
No. of Animals Showing No Disease Activity ([2]; through day 35, FTY-720 (Table 3: 10 mg/kg/d, daily)): 7/7
